Experiments:
[1] = system: EKVX; assay: In vitro cytostatic effect (SRB): EKVX, Lung cancer; details: for GI50 / TGI: 48-hour incubation
[2] = system: HS 578T; assay: In vitro cytostatic effect (SRB): HS 578T, Breast cancer; details: for GI50 / TGI: 48-hour incubation; for CC50: read-out: LC50, 48-hour incubation
[3] = system: SK-MEL-5; assay: In vitro cytostatic effect (SRB): SK-MEL-5, Melanoma; details: for GI50 / TGI: 48-hour incubation; for CC50: read-out: LC50, 48-hour incubation
[4] = system: MDA-N; assay: In vitro cytostatic effect (SRB): MDA-N, Breast cancer; details: for GI50 / TGI: 48-hour incubation; for CC50: read-out: LC50, 48-hour incubation
[5] = system: SF-295; assay: In vitro cytostatic effect (SRB): SF-295, Cancer of the central nervous system; details: for GI50 / TGI: 48-hour incubation; for CC50: read-out: LC50, 48-hour incubation
[6] = system: ACHN; assay: In vitro cytostatic effect (SRB): ACHN, Kidney cancer; details: for GI50 / TGI: 48-hour incubation; for CC50: read-out: LC50, 48-hour incubation
[7] = system: HCC-2998; assay: In vitro cytostatic effect (SRB): HCC-2998, Intestinal cancer
[8] = system: RXF 393; assay: In vitro cytostatic effect (SRB): RXF 393, Kidney cancer; details: for GI50 / TGI: 48-hour incubation; for CC50: read-out: LC50, 48-hour incubation
[9] = system: IGROV1; assay: In vitro cytostatic effect (SRB): IGROV1, Ovarian cancer; details: for GI50 / TGI: 48-hour incubation; for CC50: read-out: LC50, 48-hour incubation
[10] = system: LOX IMVI; assay: In vitro cytostatic effect (SRB): LOX IMVI, Melanoma; details: for GI50 / TGI: 48-hour incubation; for CC50: read-out: LC50, 48-hour incubation
[11] = system: RPMI-8226; assay: In vitro cytostatic effect (SRB): RPMI-8226, Leukemia; details: for GI50 / TGI: 48-hour incubation; for CC50: read-out: LC50, 48-hour incubation
[12] = system: A498; assay: In vitro cytostatic effect (SRB): A498, Kidney cancer
[13] = system: SW-620; assay: In vitro cytostatic effect (SRB): SW-620, Intestinal cancer; details: for GI50 / TGI: 48-hour incubation; for CC50: read-out: LC50, 48-hour incubation
[14] = system: HCT-116; assay: In vitro cytostatic effect (SRB): HCT-116, Intestinal cancer; details: for GI50 / TGI: 48-hour incubation; for CC50: read-out: LC50, 48-hour incubation
[15] = system: 768-0; assay: In vitro cytostatic effect (SRB): 768-0, Kidney cancer; details: for GI50 / TGI: 48-hour incubation; for CC50: read-out: LC50, 48-hour incubation
[16] = system: BT-549; assay: In vitro cytostatic effect (SRB): BT-549, Breast cancer; details: for GI50 / TGI: 48-hour incubation; for CC50: read-out: LC50, 48-hour incubation
[17] = system: SK-OV-3; assay: In vitro cytostatic effect (SRB): SK-OV-3, Ovarian cancer; details: for GI50 / TGI: 48-hour incubation; for CC50: read-out: LC50, 48-hour incubation
[18] = system: A549/ATCC; assay: In vitro cytostatic effect (SRB): A549/ATCC, Lung cancer; details: for GI50 / TGI: 48-hour incubation; for CC50: read-out: LC50, 48-hour incubation
[19] = system: DU-145; assay: In vitro cytostatic effect (SRB): DU-145, Prostate cancer; details: for GI50 / TGI: 48-hour incubation; for CC50: read-out: LC50, 48-hour incubation
[20] = system: SK-MEL-2; assay: In vitro cytostatic effect (SRB): SK-MEL-2, Melanoma; details: for GI50 / TGI: 48-hour incubation; for CC50: read-out: LC50, 48-hour incubation
[21] = system: NCI/ADR-RES; assay: In vitro cytostatic effect (SRB): NCI/ADR-RES, Breast cancer; details: for CC50: read-out: LC50, 48-hour incubation
[22] = system: UACC-257; assay: In vitro cytostatic effect (SRB): UACC-257, Melanoma; details: for GI50 / TGI: 48-hour incubation; for CC50: read-out: LC50, 48-hour incubation
[23] = system: T-47D; assay: In vitro cytostatic effect (SRB): T-47D, Breast cancer; details: for GI50 / TGI: 48-hour incubation; for CC50: read-out: LC50, 48-hour incubation
[24] = system: KM12; assay: In vitro cytostatic effect (SRB): KM12, Intestinal cancer; details: for GI50 / TGI: 48-hour incubation; for CC50: read-out: LC50, 48-hour incubation
[25] = system: SF-539; assay: In vitro cytostatic effect (SRB): SF-539, Cancer of the central nervous system; details: for GI50 / TGI: 48-hour incubation; for CC50: read-out: LC50, 48-hour incubation
[26] = system: NCI-H522; assay: In vitro cytostatic effect (SRB): NCI-H522, Lung cancer; details: for GI50 / TGI: 48-hour incubation; for CC50: read-out: LC50, 48-hour incubation
[27] = system: UACC-62; assay: In vitro cytostatic effect (SRB): UACC-62, Melanoma; details: for GI50 / TGI: 48-hour incubation; for CC50: read-out: LC50, 48-hour incubation
[28] = system: HL-60(TB); details: for GI50 / TGI: Leukemia, 48-hour incubation; for CC50: read-out: LC50, Leukemia, 48-hour incubation
[29] = read-out: LC50, 48-hour incubation

CCCCCCCCCCCCCCCCCCOC(COP(=O)(O)OCC1OC(n2cc(F)c(=O)[nH]c2=O)CC1O)COP(=O)(O)OCC1OC(n2ccc(N)nc2=O)C(O)C1O (racemic) [NSC 698688-A/1, arabinocytidylyl-(5′→1)-2-O-octadecyl-rac-glycerylyl-(3→5′)-5-fluoro-2′-deoxyuridine]
GI50 [1]: > 100 µM
TGI [1]: >1.00E − 04 mol/l
CC50 [1, 29]: > 100 µM
GI50 [2]: > 100 µM
TGI [2]: >1.00E − 04 mol/l
CC50 [2]: > 100 µM
GI50 [3]: > 100 µM
TGI [3]: >1.00E − 04 mol/l
CC50 [3]: > 100 µM
GI50 [4]: > 100 µM
TGI [4]: >1.00E − 04 mol/l
CC50 [4]: > 100 µM
GI50 [5]: 0.799 µM
TGI [5]: >1.00E − 04 mol/l
CC50 [5]: > 100 µM
GI50 [6]: 0.466 µM
TGI [6]: >1.00E − 04 mol/l
CC50 [6]: > 100 µM
GI50 ([7]; 48-hour incubation): 0.0588 µM
TGI ([7]; 48-hour incubation): 3.50E − 05 mol/l
CC50 [7, 29]: > 100 µM
GI50 [8]: 10.2 µM
TGI [8]: 2.86E − 05 mol/l
CC50 [8]: 80 µM
GI50 [9]: 13.6 µM
TGI [9]: >1.00E − 04 mol/l
CC50 [9]: > 100 µM
GI50 [10]: 1.4 µM
TGI [10]: >1.00E − 04 mol/l
CC50 [10]: > 100 µM
GI50 [11]: 1.65 µM
TGI [11]: >1.00E − 04 mol/l
CC50 [11]: > 100 µM
GI50 ([12]; 48-hour incubation): 0.319 µM
TGI ([12]; 48-hour incubation): >1.00E − 04 mol/l
CC50 [12, 29]: > 100 µM
GI50 [13]: 62.8 µM
TGI [13]: >1.00E − 04 mol/l
CC50 [13]: > 100 µM
GI50 [14]: 4.9 µM
TGI [14]: >1.00E − 04 mol/l
CC50 [14]: > 100 µM
GI50 [15]: 0.854 µM
TGI [15]: 1.34E − 05 mol/l
CC50 [15]: 44.4 µM
GI50 [16]: 14.5 µM
TGI [16]: 8.69E − 05 mol/l
CC50 [16]: > 100 µM
GI50 [17]: 36.3 µM
TGI [17]: >1.00E − 04 mol/l
CC50 [17]: > 100 µM
GI50 [18]: 0.346 µM
TGI [18]: >1.00E − 04 mol/l
CC50 [18]: > 100 µM
GI50 [19]: 2.68 µM
TGI [19]: >1.00E − 04 mol/l
CC50 [19]: > 100 µM
GI50 [20]: > 100 µM
TGI [20]: >1.00E − 04 mol/l
CC50 [20]: > 100 µM
TGI ([21]; 48-hour incubation): >1.00E − 04 mol/l
CC50 [21]: > 100 µM
GI50 [22]: 49.8 µM
TGI [22]: >1.00E − 04 mol/l
CC50 [22]: > 100 µM
GI50 [23]: > 100 µM
TGI [23]: >1.00E − 04 mol/l
CC50 [23]: > 100 µM
GI50 [24]: 74.7 µM
TGI [24]: >1.00E − 04 mol/l
CC50 [24]: > 100 µM
GI50 [25]: 0.488 µM
TGI [25]: 1.03E − 05 mol/l
CC50 [25]: 80.3 µM
GI50 [26]: 16.2 µM
TGI [26]: >1.00E − 04 mol/l
CC50 [26]: > 100 µM
GI50 [27]: 1.77 µM
TGI [27]: >1.00E − 04 mol/l
CC50 [27]: > 100 µM
GI50 [28]: 3.66 µM
TGI [28]: >1.00E − 04 mol/l
CC50 [28]: > 100 µM

Nc1ccn(C2CCC(COP(=O)(O)OCC(O)COP(=O)(O)OCC3OC(n4cc(F)c(=O)[nH]c4=O)CC3O)O2)c(=O)n1 (racemic) [NSC 704533, 2′,3′-didesoxycytidylyl-(5′→1)-racglycerylyl-(3→5′)-5-fluoro-2′-desoxyuridine]
GI50 [1]: > 100 µM
TGI [1]: >1.00E − 04 mol/l
GI50 [2]: 0.732 µM
TGI [2]: >1.00E − 04 mol/l
CC50 [2]: > 100 µM
GI50 [3]: 0.689 µM
TGI [3]: >1.00E − 04 mol/l
CC50 [3]: > 100 µM
GI50 [4]: 25.4 µM
TGI [4]: >1.00E − 04 mol/l
CC50 [4]: > 100 µM
GI50 [5]: 0.0345 µM
TGI [5]: >1.00E − 04 mol/l
CC50 [5]: > 100 µM
GI50 [6]: < 0.01 µM
TGI [6]: >1.00E − 04 mol/l
CC50 [6]: > 100 µM
GI50 [8]: 5.12 µM
TGI [8]: >1.00E − 04 mol/l
CC50 [8]: > 100 µM
GI50 [9]: 68 µM
TGI [9]: >1.00E − 04 mol/l
CC50 [9]: > 100 µM
GI50 [10]: 0.0101 µM
TGI [10]: >1.00E − 04 mol/l
CC50 [10]: > 100 µM
GI50 [11]: 11 µM
TGI [11]: >1.00E − 04 mol/l
CC50 [11]: > 100 µM
GI50 [13]: > 100 µM
TGI [13]: >1.00E − 04 mol/l
CC50 [13]: > 100 µM
GI50 [14]: 0.374 µM
TGI [14]: >1.00E − 04 mol/l
CC50 [14]: > 100 µM
GI50 [15]: > 100 µM
TGI [15]: >1.00E − 04 mol/l
CC50 [15]: > 100 µM
GI50 [16]: 4.15 µM
TGI [16]: >1.00E − 04 mol/l
CC50 [16]: > 100 µM
GI50 [17]: 44.3 µM
TGI [17]: >1.00E − 04 mol/l
CC50 [17]: > 100 µM
GI50 [18]: 0.0477 µM
TGI [18]: >1.00E − 04 mol/l
CC50 [18]: > 100 µM
GI50 [19]: 0.158 µM
TGI [19]: >1.00E − 04 mol/l
CC50 [19]: > 100 µM
GI50 [20]: 79.4 µM
TGI [20]: >1.00E − 04 mol/l
CC50 [20]: > 100 µM
GI50 ([21]; 48-hour incubation): 0.695 µM
TGI ([21]; 48-hour incubation): >1.00E − 04 mol/l
CC50 [21]: > 100 µM
GI50 [22]: > 100 µM
TGI [22]: >1.00E − 04 mol/l
CC50 [22]: > 100 µM
GI50 [23]: 1.42 µM
TGI [23]: >1.00E − 04 mol/l
CC50 [23]: > 100 µM
GI50 [24]: 14.5 µM
TGI [24]: >1.00E − 04 mol/l
CC50 [24]: > 100 µM
GI50 [25]: 0.0216 µM
TGI [25]: >1.00E − 04 mol/l
CC50 [25]: > 100 µM
GI50 [26]: 0.746 µM
TGI [26]: >1.00E − 04 mol/l
CC50 [26]: > 100 µM
GI50 [27]: 0.55 µM
TGI [27]: >1.00E − 04 mol/l
CC50 [27]: > 100 µM
GI50 [28]: 0.0715 µM
TGI [28]: >1.00E − 04 mol/l
CC50 [28]: > 100 µM

From patent US6787525B1, “Glyceryl nucleotides, method for the production thereof and their use” (priority 1998, dated 2004)
